pIC50: −log10 of the molar value. Read-outs that look alike come from different tables or passages of the source.
Assays:
[1] = test system: VEGFR2 and FGFR1; experiment: Selection of compounds that selectively inhibit both VEGFR2 and FGFR1 (average relative IC50); format: biochemical
[2] = target: T1, VEGFR2 (Homo sapiens, UniProt P35968); details: relative IC50: reported IC50 toward VEGFR2 divided by next lowest reported IC50 to any gene target
[3] = test system: any gene target; details: cited from earlier work
[4] = target: T1, VEGFR2; details: reported IC50 to VEGFR2; Table 3, selective inhibitors of VEGFR2; read-out: VEGFR2 IC50_μM; cited from earlier work
[5] = target: FGFR1 (Homo sapiens, UniProt P11362); details: relative IC50: reported IC50 toward FGFR1 divided by next lowest reported IC50 to any gene target
[6] = average of VEGFR2 and FGFR1 relative IC50
[7] = lowest reported IC50 to any gene target, read-out: min IC50
[8] = next lowest IC50 value to any gene target, Table 3, read-out: Min IC50_μM
[9] = lowest reported IC50 to any gene target, read-out: Min IC50_μM

T1 sequence (P35968 20-1356, species assumed): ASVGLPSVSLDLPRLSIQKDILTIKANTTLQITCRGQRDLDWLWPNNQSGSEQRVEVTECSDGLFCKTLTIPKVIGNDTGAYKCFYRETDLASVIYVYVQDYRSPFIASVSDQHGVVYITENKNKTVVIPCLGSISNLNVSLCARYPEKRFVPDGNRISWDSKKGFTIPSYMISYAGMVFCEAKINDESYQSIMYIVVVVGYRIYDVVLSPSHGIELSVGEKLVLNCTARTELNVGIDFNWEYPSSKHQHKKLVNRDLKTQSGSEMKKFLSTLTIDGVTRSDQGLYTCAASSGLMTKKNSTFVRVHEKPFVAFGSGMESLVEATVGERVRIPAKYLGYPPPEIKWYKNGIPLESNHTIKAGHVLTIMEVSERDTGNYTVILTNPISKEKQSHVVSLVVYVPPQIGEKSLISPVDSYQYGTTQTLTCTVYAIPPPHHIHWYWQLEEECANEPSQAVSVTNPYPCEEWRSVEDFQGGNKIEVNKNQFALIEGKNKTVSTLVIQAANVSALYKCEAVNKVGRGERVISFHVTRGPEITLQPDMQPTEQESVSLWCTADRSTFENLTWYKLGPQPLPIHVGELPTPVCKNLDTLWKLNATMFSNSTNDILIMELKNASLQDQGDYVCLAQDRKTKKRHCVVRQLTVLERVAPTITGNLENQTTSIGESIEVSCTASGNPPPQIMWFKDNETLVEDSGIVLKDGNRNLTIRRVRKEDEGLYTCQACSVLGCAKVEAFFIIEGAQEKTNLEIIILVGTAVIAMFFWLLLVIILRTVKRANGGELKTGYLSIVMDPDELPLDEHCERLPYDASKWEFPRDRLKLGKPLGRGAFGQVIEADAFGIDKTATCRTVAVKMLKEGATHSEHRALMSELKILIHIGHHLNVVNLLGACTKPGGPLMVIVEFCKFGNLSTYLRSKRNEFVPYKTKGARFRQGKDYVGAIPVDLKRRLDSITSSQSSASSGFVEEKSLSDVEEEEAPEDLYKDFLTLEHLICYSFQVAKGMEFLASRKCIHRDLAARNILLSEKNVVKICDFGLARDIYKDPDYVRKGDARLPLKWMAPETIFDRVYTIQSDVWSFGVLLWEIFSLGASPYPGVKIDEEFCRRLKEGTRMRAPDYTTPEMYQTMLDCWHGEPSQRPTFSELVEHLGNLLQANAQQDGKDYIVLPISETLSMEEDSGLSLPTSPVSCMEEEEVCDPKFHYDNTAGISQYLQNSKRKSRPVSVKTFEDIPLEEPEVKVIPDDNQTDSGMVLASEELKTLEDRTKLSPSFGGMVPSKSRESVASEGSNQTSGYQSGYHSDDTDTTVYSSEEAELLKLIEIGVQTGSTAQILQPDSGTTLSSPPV
FGFR1, sequence (P11362 22-822, species assumed): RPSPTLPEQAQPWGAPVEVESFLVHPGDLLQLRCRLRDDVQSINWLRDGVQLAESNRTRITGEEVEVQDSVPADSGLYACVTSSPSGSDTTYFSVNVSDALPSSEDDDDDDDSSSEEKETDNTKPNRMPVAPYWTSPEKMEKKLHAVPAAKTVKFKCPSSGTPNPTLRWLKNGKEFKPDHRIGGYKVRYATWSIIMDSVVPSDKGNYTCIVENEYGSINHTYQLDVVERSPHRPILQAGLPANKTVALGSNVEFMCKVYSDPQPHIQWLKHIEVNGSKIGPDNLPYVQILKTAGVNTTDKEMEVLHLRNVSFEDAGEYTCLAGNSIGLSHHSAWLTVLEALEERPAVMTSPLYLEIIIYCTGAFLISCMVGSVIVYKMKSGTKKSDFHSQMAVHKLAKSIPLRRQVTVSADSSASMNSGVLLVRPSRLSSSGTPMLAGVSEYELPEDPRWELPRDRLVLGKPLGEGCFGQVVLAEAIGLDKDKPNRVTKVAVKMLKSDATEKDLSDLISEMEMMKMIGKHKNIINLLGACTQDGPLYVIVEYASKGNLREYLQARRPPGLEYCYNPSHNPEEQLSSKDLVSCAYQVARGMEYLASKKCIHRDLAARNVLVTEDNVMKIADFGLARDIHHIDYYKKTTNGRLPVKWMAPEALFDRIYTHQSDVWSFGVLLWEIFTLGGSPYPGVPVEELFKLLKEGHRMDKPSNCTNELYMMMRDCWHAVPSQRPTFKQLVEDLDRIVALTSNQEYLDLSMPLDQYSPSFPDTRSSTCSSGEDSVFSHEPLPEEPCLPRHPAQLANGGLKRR

SMILES | avg rIC50 [1, 6] | VEGFR2, rIC50 [2] | further results
COc1cc(OC)cc(-c2cc3cnc(NCCCN4CCOCC4)cc3nc2NC(=O)NC(C)(C)C)c1 [compound 5329004, 1,6-Naphthyridine deriv. 20, reference compound] | 5.0 | – | –
CONC(=O)c1cc(Nc2ncnn3cc(-c4nc(C)no4)c(C(C)C)c23)c(F)cc1F [compound 11419379, 2,4-Difluoro-5-[5-isopropyl-6-(3-methyl-[1,2,4]oxadiazol-5-yl)-pyrrolo[2,1-f][1,2,4]triazin-4-ylamino]-N-methoxy-benzamide, reference compound] | – | 1.0 | pIC50 [3, 7]: 8.15; pIC50 [3, 8]: 8.17; pIC50 [4]: 8.17
CCNC(=O)Nc1nc2nc(NCCCCN(CC)CC)ncc2cc1-c1cc(OC)cc(OC)c1 [compound 5330168, Pyrido[2,3-d]pyrimidine 104, reference compound] | 3.4 | – | –
COC(=O)c1ccc2c(c1)NC(=O)/C2=C(\Nc1ccc(N(C)C(=O)CN2CCN(C)CC2)cc1)c1ccccc1 [compound 135476717, Nintedanib esylate] | – | 1.6 | avg rIC50 [1]: 3.5; pIC50 [3, 7]: 7.89
CONC(=O)c1cc(Nc2ncnn3cc(-c4nnc(C5CC5)o4)c(C(C)C)c23)c(F)cc1F [compound 11465545, 5-[6-(5-Cyclopropyl-[1,3,4]oxadiazol-2-yl)-5-isopropyl-pyrrolo[2,1-f][1,2,4]triazin-4-ylamino]-2,4-difluoro-N-methoxy-benzamide, reference compound] | – | 1.0 | pIC50 [3, 7]: 8.40; pIC50 [3, 8]: 8.44; pIC50 [4]: 8.44
CONC(=O)c1cc(Nc2ncnn3cc(-c4nnc(CC5CC5)o4)c(C(C)C)c23)c(F)cc1F [compound 11155938, 5-[6-(5-Cyclopropylmethyl-[1,3,4]oxadiazol-2-yl)-5-isopropyl-pyrrolo[2,1-f][1,2,4]triazin-4-ylamino]-2,4-difluoro-N-methoxy-benzamide, reference compound] | – | 1.0 | pIC50 [3, 7]: 8.40; pIC50 [3, 8]: 8.40; pIC50 [4]: 8.40
COc1cc(OC)cc(-c2cc3cnc(NCCCN4CCN(C)CC4)cc3nc2NC(=O)NC(C)(C)C)c1 [compound 5330127, 1,6-Naphthyridine 17, reference compound] | 3.0 | – | –
COc1cc(OC)cc(-c2cc3cnc(NCCCCCO)cc3nc2NC(=O)NC(C)(C)C)c1 [compound 5330159, 1,6-Naphthyridine 77, reference compound] | 1.5 | – | –
COC(=O)c1ccc2c(c1)NC(=O)/C2=C(\Nc1ccc(CN2CCCCC2)cc1)c1ccccc1 [compound 135476706, Methyl (3Z)-2-oxo-3-[phenyl-[4-(piperidin-1-ylmethyl)anilino]methylidene]-1H-indole-6-carboxylate] | – | 1.1 | avg rIC50 [1]: 1.7; pIC50 ([3]; read-out: min IC50): 7.49
COc1cc(OC)cc(-c2cc3cnc(NCCCO)cc3nc2NC(=O)NC(C)(C)C)c1 [compound 5330157, 1,6-Naphthyridine 75, reference compound] | 1.4 | – | –
CCNC(=O)Nc1nc2nc(NCCCN3CCN(C)CC3)ncc2cc1-c1cc(OC)cc(OC)c1 [compound 5330166, Pyrido[2,3-d]pyrimidine 102, reference compound] | 2.6 | – | –
CNC(=O)c1cc(F)cc(N(CCNC(C)C)c2ccc3ncc(-c4cnn(C)c4)nc3c2)c1 [compound 68209105, reference compound] | 2.8 | – | pIC50 ([3]; Table 2, lowest reported IC50 to any gene target, read-out: Min IC50_μM): 8.50; pIC50 [3, 7]: 8.70
CN(C)CCCc1cccc(Nc2ncc3c(n2)-c2ccc(Cl)cc2NC(=S)C3)c1 [compound 56945277, 9-Chloro-2-[3-[3-(dimethylamino)propyl]anilino]-5,7-dihydropyrimido[5,4-d][1]benzazepine-6-thione] | – | – | FGFR1, rIC50 [5]: 2.4
Oc1cc2c(cc1O)C1c3ccc(O)c(O)c3OCC1(O)C2 (centres unmarked) [compound 442514, Haematoxylin] | – | 9.5 | avg rIC50 [1]: 5.5
CONC(=O)c1cc(Nc2ncnn3cc(-c4ncc(C)o4)c(C(C)C)c23)c(F)cc1F [compound 10388612, 2,4-Difluoro-5-[5-isopropyl-6-(5-methyl-oxazol-2-yl)-pyrrolo[2,1-f][1,2,4]triazin-4-ylamino]-N-methoxy-benzamide, reference compound] | – | 1.0 | pIC50 [3, 7]: 9.00; pIC50 [3, 8]: 8.96; pIC50 [4]: 8.96
COc1cc(OC)cc(-c2cc3cnc(NCCCCN4CCOCC4)cc3nc2NC(=O)NC(C)(C)C)c1 [compound 5330129, 1,6-Naphthyridine 19, reference compound] | 1.5 | – | –
COC(=O)c1ccc2c(c1)NC(=O)/C2=C(\Nc1ccc(N(CCN(C)C)C(C)=O)cc1)c1ccccc1 [compound 135528963, Methyl (3Z)-3-[[4-[acetyl-[2-(dimethylamino)ethyl]amino]anilino]-phenylmethylidene]-2-oxo-1H-indole-6-carboxylate] | – | 2.4 | –
CCN1CCC(Nc2ccc3[nH]c(O)c(C(=C4N=c5ccccc5=N4)c4ccc(C)cc4)c3c2)CC1 [compound 135507297, 3-[Benzimidazol-2-ylidene-(4-methylphenyl)methyl]-5-[(1-ethylpiperidin-4-yl)amino]-1H-indol-2-ol] | – | 1.6 | –
CONC(=O)c1cc(Nc2ncnn3cc(-c4nnc(C(F)(F)S(C)(=O)=O)o4)c(C(C)C)c23)c(F)cc1F [compound 11432911, 5-{6-[5-(Difluoro-methanesulfonyl-methyl)-[1,3,4]oxadiazol-2-yl]-5-isopropyl-pyrrolo[2,1-f][1,2,4]triazin-4-ylamino}-2,4-difluoro-N-methoxy-benzamide] | 2.9 | 1.0 | FGFR1, rIC50 [5]: 4.8
Nc1c(C(=O)c2cc3cc(CN4CCOCC4)ccc3[nH]2)cnn1-c1cc(O)ccc1Cl [compound 134156584, [5-Amino-1-(2-chloro-5-hydroxyphenyl)pyrazol-4-yl]-[5-(morpholin-4-ylmethyl)-1H-indol-2-yl]methanone] | – | 5.6 | –
COc1ccc(N2Cc3cnc(Nc4ccc(F)cc4)nc3N([C@@H]3CC[C@@H](O)C3)C2=O)cc1 [compound 11396738, 7-(4-Fluoroanilino)-1-[(1R,3R)-3-hydroxycyclopentyl]-3-(4-methoxyphenyl)-4H-pyrimido[4,5-d]pyrimidin-2-one, reference compound] | – | 0.6 | avg rIC50 [1]: 1.2; pIC50 ([3]; read-out: Min IC50_μM): 7.08; pIC50 ([3]; read-out: min IC50): 7.08
Oc1ccc(C[C@@]2(O)COc3c(ccc(O)c3O)[C@H]2O)cc1O [compound 24949852, Epihematoxylol] | – | 5.8 | avg rIC50 [1]: 3.7
CCN1CCC(Nc2ccc3[nH]c(O)c(C(=C4N=c5ccccc5=N4)c4cccc(F)c4)c3c2)CC1 [compound 135488014, 3-[Benzimidazol-2-ylidene-(3-fluorophenyl)methyl]-5-[(1-ethylpiperidin-4-yl)amino]-1H-indol-2-ol] | – | 0.6 | –
COc1cc(OC)cc(-c2cc3cnc(NCCCCCN4CCN(C)CC4)cc3nc2NC(=O)NC(C)(C)C)c1 [compound 5330135, 1,6-Naphthyridine 25, reference compound] | 1.8 | – | pIC50 [3, 9]: 8.52; pIC50 [3, 7]: 8.52
CCN(CC)CCCNc1cc2nc(NC(=O)NC(C)(C)C)c(-c3cc(OC)cc(OC)c3)cc2cn1 [compound 5330128, 1,6-Naphthyridine 18, reference compound] | 4.3 | – | –
COc1cc(OC)cc(-c2cc3cnc(NCCCN4CCN(C)CC4)nc3nc2NC(=O)NC(C)(C)C)c1 [compound 5330167, Pyrido[2,3-d]pyrimidine 103, reference compound] | 2.3 | – | –
COC(=O)c1ccc2c(c1)NC(=O)/C2=C(\Nc1ccc(N(CCN(C)C)S(C)(=O)=O)cc1)c1ccccc1 [compound 135456078, Methyl (3Z)-3-[[4-[2-(dimethylamino)ethyl-methylsulfonylamino]anilino]-phenylmethylidene]-2-oxo-1H-indole-6-carboxylate] | – | 2.3 | –
CCN1CCC(Nc2ccc3c(c2)/C(=C(\c2cccc(F)c2)c2nc(C)c[nH]2)C(=O)N3)CC1 [compound 67163677, XL999; XL-999; XL 999, reference compound] | 2.0 | – | pIC50 [3, 7]: 8.70
COc1cc(OC)cc(-c2cc3cnc(NCCCO)nc3nc2NC(=O)NC(C)(C)C)c1 [compound 5330169, Pyrido[2,3-d]pyrimidine 105, reference compound] | 2.3 | – | –
COc1cc(OC)cc(-c2cc3cnc(NCCCCN4CCN(C)CC4)cc3nc2NC(=O)NC(C)(C)C)c1 [compound 5330130, reference compound] | 4.3 | – | pIC50 [3, 9]: 9.40

Reference: US20240156825A1, “USE OF SELECTIVE VEGFR2 AND FGFR1 INHIBITORS” (Fountain Therapeutics Inc., priority 2022, published 2024)
